Assay results as given in paper doi:10.1101/2020.07.01.182642v1 (biorxiv, 2020).
Each block holds one compound with its values, some of them ahead of it.

Columns and labels:
SIK1 = SIK1 (Homo sapiens, UniProt P57059); conditions: binder
PRKG2 = PRKG2 (Homo sapiens, UniProt Q13237); conditions: binder
VRK3 = VRK3 (Homo sapiens, UniProt Q8IV63); conditions: binder
PRKD2 = PRKD2 (Homo sapiens, UniProt Q9BZL6); conditions: binder
NEK6 = NEK6 (Homo sapiens, UniProt Q9HC98); conditions: binder
RIPK3 = RIPK3 (Homo sapiens, UniProt Q9Y572); conditions: binder
CDKL3 = CDKL3 (Homo sapiens, UniProt Q8IVW4); conditions: binder
DDR1 = DDR1 (Homo sapiens, UniProt Q08345); conditions: binder
TLK1 = TLK1 (Homo sapiens, UniProt Q9UKI8); conditions: binder
PRKCZ = PRKCZ (Homo sapiens, UniProt Q05513); conditions: binder
PRKCZ, sequence (Q05513 whole entry): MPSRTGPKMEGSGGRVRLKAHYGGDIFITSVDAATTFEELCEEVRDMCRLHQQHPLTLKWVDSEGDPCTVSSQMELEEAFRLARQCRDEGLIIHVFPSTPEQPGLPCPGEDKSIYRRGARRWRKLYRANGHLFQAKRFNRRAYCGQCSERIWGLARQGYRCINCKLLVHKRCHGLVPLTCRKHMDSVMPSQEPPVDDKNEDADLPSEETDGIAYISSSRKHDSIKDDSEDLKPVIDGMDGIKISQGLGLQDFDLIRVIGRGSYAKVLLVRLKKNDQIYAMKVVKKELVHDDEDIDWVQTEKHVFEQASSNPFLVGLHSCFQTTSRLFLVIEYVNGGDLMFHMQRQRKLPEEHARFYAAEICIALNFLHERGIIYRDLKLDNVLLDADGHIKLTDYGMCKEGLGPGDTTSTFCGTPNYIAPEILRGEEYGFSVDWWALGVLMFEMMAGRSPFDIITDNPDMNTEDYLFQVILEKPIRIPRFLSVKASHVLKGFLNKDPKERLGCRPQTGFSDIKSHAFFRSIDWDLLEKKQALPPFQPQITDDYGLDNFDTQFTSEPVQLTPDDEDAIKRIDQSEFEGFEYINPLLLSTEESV

SGK3 = SGK3 (Homo sapiens, UniProt Q96BR1); conditions: binder
SGK3, sequence (Q96BR1 whole entry): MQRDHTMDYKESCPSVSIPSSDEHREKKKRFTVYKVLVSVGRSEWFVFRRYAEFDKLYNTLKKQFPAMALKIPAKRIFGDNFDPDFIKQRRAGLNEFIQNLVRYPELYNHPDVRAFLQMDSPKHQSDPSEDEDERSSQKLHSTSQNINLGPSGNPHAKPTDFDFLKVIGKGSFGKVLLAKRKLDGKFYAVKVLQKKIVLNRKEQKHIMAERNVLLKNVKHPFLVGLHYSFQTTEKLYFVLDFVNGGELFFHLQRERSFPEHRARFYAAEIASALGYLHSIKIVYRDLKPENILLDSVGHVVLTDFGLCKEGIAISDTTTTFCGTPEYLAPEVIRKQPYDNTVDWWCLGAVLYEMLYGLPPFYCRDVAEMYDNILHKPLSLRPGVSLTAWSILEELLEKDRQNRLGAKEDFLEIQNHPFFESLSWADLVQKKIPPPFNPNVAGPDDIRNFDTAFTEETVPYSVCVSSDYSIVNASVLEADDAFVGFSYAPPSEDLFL

PAK1 = PAK1 (Homo sapiens, UniProt Q13153); conditions: binder
PAK1, sequence (Q13153 whole entry): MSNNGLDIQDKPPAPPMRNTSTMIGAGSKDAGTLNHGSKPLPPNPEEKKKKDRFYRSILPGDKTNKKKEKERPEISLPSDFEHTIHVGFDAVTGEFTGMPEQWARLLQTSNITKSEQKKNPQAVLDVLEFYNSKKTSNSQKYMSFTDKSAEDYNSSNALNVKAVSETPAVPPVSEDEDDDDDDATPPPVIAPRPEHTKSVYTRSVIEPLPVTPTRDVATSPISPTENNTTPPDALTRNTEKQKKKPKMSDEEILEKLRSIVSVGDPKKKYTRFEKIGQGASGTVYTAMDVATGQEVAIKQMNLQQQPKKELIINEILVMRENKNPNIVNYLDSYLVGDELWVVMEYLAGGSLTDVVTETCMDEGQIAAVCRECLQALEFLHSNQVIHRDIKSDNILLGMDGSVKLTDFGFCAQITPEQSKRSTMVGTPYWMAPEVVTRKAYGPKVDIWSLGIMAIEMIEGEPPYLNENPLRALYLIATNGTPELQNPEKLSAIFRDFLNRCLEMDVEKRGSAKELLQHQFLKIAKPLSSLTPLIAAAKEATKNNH

NEK9 = NEK9 (Homo sapiens, UniProt Q8TD19); conditions: binder
FGR = FGR (Homo sapiens, UniProt P09769); conditions: binder
FGR, sequence (P09769 whole entry): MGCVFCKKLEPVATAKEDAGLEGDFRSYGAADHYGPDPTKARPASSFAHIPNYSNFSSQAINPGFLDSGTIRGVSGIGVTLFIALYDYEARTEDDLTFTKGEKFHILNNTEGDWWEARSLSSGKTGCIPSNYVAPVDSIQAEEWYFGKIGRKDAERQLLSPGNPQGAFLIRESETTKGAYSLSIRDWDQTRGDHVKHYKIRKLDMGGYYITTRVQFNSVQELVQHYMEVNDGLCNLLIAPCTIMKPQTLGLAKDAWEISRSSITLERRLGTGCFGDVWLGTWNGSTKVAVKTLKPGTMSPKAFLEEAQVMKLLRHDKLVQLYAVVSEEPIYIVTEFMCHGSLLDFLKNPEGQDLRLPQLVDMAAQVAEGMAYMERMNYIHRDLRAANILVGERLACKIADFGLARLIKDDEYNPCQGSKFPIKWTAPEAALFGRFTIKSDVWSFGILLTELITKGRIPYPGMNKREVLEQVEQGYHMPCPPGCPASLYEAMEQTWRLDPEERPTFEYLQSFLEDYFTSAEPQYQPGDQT

STK40 = STK40 (Homo sapiens, UniProt Q8N2I9); conditions: binder
GRK5 = GRK5 (Homo sapiens, UniProt P34947); conditions: binder
GRK5, sequence (P34947 whole entry): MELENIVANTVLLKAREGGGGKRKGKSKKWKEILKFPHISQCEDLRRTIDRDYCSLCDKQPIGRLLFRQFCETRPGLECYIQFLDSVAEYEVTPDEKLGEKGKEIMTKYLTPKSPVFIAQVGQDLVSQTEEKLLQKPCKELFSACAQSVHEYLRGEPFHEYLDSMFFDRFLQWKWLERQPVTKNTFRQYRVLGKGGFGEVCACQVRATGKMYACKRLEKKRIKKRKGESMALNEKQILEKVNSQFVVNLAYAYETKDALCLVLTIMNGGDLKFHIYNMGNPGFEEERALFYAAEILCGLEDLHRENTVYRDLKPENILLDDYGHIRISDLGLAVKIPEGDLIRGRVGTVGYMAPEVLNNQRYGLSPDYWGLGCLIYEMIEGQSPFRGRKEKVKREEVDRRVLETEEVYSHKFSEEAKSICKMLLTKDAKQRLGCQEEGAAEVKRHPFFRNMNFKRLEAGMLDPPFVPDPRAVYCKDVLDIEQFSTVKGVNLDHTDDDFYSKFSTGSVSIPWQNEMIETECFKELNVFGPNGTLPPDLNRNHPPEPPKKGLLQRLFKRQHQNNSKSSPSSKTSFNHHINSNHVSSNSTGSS

NEK11 = NEK11 (Homo sapiens, UniProt Q8NG66); conditions: binder
ABL2 = ABL2 (Homo sapiens, UniProt P42684); conditions: binder
CAMK2D = CAMK2D (Homo sapiens, UniProt Q13557); conditions: binder
PRKX = PRKX (Homo sapiens, UniProt P51817); conditions: binder
NLK = NLK (Homo sapiens, UniProt Q9UBE8); conditions: binder
SgK223 = SgK223 (Homo sapiens, UniProt Q86YV5); conditions: binder
CLK1 (H148-I484) [1] = biological target: CLK1 (H148-I484) (Homo sapiens, UniProt P49759); conditions: binder
CLK1 (H148-I484) (Homo sapiens, UniProt P49759), sequence (P49759 148-484): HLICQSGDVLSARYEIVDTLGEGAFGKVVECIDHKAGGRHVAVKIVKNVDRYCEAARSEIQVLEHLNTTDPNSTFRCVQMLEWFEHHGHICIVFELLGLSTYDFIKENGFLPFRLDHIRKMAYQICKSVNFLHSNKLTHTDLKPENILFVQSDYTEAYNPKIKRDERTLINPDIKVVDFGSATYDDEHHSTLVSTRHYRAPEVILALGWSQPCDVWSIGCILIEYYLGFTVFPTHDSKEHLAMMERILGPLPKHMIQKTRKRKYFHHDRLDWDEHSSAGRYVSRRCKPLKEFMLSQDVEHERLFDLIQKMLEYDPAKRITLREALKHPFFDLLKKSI

CLK3 (R134-T484) = CLK3 (R134-T484) (Homo sapiens, UniProt P49761); conditions: binder
CLK3 (R134-T484), sequence (P49761 134-484): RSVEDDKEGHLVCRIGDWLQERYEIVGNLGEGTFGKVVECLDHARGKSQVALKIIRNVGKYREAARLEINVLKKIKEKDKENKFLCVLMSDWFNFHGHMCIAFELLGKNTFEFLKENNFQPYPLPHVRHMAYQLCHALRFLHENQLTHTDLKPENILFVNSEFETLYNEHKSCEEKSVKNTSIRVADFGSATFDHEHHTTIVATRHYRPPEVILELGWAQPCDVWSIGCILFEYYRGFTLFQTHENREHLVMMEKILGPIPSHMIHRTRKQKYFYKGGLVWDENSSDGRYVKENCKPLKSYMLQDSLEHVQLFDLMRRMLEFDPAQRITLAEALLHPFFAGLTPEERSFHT

CLK1 (H148-I484) [2] = biological target: CLK1 (H148-I484) (Homo sapiens, UniProt P49759, V324A); conditions: binder
CLK1 (H148-I484) (Homo sapiens, UniProt P49759, V324A), sequence (P49759 148-484 V324A): as the sequence (P49759 148-484) above, with V177A counted along it

CLK1 (full-length) = CLK1 (full-length) (Homo sapiens, UniProt P49759); experiment: cell-based; parameters: species or system HEK293T
PTK6 = PTK6 (Homo sapiens, UniProt Q13882); conditions: binder
PTK6, sequence (Q13882 whole entry): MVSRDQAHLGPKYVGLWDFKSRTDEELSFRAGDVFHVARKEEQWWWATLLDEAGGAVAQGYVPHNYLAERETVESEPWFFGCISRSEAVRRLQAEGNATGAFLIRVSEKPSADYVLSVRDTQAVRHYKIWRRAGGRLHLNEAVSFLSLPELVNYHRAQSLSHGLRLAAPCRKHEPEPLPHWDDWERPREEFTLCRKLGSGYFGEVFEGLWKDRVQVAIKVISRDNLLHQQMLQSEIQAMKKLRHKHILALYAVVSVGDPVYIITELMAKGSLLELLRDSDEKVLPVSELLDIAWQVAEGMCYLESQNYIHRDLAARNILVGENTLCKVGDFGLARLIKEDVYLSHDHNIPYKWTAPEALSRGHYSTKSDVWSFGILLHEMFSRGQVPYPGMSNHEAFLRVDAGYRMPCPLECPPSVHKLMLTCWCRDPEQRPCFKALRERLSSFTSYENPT

CLK4 = CLK4 (Homo sapiens, UniProt Q9HAZ1); conditions: binder
OXSR1 = OXSR1 (Homo sapiens, UniProt O95747); conditions: binder
RIPK2 = RIPK2 (Homo sapiens, UniProt O43353); conditions: binder

PRKG2, sequence (Q13237 whole entry): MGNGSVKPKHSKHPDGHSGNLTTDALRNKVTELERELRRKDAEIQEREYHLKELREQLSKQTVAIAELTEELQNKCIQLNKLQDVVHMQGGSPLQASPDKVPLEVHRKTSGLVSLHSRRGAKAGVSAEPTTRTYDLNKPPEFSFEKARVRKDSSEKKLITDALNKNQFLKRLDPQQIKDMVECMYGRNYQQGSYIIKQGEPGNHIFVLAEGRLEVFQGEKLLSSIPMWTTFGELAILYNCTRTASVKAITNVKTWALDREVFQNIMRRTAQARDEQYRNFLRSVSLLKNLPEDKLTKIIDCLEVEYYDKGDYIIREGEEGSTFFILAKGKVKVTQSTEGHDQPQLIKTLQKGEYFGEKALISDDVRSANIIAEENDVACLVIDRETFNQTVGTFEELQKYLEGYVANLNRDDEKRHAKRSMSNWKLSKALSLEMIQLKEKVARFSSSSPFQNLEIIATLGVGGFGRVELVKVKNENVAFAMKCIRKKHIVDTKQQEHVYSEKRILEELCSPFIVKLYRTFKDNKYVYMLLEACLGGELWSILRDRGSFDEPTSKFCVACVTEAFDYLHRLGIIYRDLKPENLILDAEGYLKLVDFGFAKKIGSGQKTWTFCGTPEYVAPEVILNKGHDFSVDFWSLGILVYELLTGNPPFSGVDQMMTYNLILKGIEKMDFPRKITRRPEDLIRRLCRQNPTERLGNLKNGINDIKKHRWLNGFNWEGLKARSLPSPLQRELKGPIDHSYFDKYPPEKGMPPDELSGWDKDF

ΔTm inhibitor 2 (SIK1): 1.5 °C | ΔTm inhibitor 2 (PRKG2): -0.1 °C | ΔTm inhibitor 2 (VRK3): 0.5 °C | ΔTm inhibitor 2 (PRKD2): 0.7 °C | ΔTm inhibitor 2 (NEK6): -1.0 °C | ΔTm inhibitor 2 (RIPK3): -0.6 °C | ΔTm inhibitor 2 (CDKL3): 0.1 °C | ΔTm inhibitor 2 (DDR1): 0.4 °C | ΔTm inhibitor 2 (TLK1): -0.1 °C | ΔTm inhibitor 2 (PRKCZ): -0.2 °C | ΔTm inhibitor 2 (SGK3): -0.1 °C | ΔTm inhibitor 2 (PAK1): 0.0 °C | ΔTm inhibitor 2 (FGR): -0.2 °C | ΔTm inhibitor 2 (STK40): 0.0 °C | ΔTm inhibitor 2 (GRK5): 0.8 °C | ΔTm inhibitor 2 (NEK11): 0.6 °C | ΔTm inhibitor 2 (ABL2): -0.5 °C | ΔTm inhibitor 2 (CAMK2D): -0.6 °C | ΔTm inhibitor 2 (PRKX): -0.2 °C | ΔTm inhibitor 2 (NLK): -0.2 °C
Compound: CCN1/C(=C/C(C)=O)Sc2ccc(OC)cc21 [compound 2, TG003]
ΔTm inhibitor 2 (NEK9): 0.5 °C

ΔTm inhibitor 4 (SgK223): 0.4 °C | ΔTm wild type CLK1 (CLK1 (H148-I484) [1]): 5.7 °C | ΔTm wild type CLK3 (CLK3 (R134-T484)): 0.1 °C | ΔTm V324A CLK1 (CLK1 (H148-I484) [2]): 2.4 °C
Compound: Nc1nccc(-c2ccc3noc(-c4ccc(Cl)cc4)c3c2)n1 [compound 4, K00972]

Ki (CLK1 (full-length)): 0.229 ± 0.1 µM | ΔTm inhibitor 1 (PTK6): 0.4 °C | ΔTm inhibitor 1 (CLK4): 8.5 °C | ΔTm inhibitor 1 (OXSR1): 0.5 °C | ΔTm inhibitor 1 (RIPK2): 6.0 °C | ΔTm wild type CLK1 (CLK1 (H148-I484) [1]): 7.2 °C | ΔTm wild type CLK3 (CLK3 (R134-T484)): 1.4 °C | ΔTm V324A CLK1 (CLK1 (H148-I484) [2]): 4.9 °C
Compound: CC(=O)c1cccc(-c2cnc3ccc(NCC4CC4)nn23)c1 [compound 1, K00135]
